Tests used:
[1] = Release of NaF from implanted intracameral device, HRA imaging; assay type: in vivo, New Zealand white (NZW) rabbit; details: rabbit eye
Experimental: FIGS. 11A-D illustrate a series of Heidelberg retina angiograph (HRA) images of diffusion from an implanted device. FIGS. 11A-D illustrate HRA images after 2 minutes, 5 minutes, 10 minutes and 20 minutes.
A device in accordance with the present disclosure was loaded with sodium fluorescein (NaF) in a polymeric delivery implant. A New Zealand white (NZW) rabbit had this device implanted in the sub-Tenon's space with the inner port extending into the anterior chamber.
FIG. 11 illustrates that in as little as 2 minutes after implantation, the NaF had begun to disperse into the anterior chamber. By 20 minutes, the NaF had substantially dispersed into most of the anterior chamber.

glaucoma = experiment: Treatment of glaucoma with bimatoprost-coated intracameral implant; assay type: in vivo, human; details: person, intracameral implant coated with sustained release formulation, after 2 weeks
Text: They have previously received topical therapy, but to no avail. Their vision is worsening as time progresses. […] After 2 weeks, the IOP is reduced.

[2] = tested on: age-related macular degeneration; experiment: Treatment of macular degeneration with bimatoprost-coated intracameral implant; assay type: in vivo, human; details: person, end of 7-year follow up
Text: A person has age-related macular degeneration and cataracts in both eyes. […] At the end of a 7-year follow up period the patient can have maintained vision in the both eyes of at least 20/32

iris = details: topical latanoprost (XALATAN); cited from earlier work

O=C([O-])c1ccccc1-c1c2ccc(=O)cc-2oc2cc([O-])ccc12.[Na+].[Na+] [NaF, sodium fluorescein]
time after implantation at which NaF had begun to disperse into the anterior chamber ([1]; FIG. 11, HRA images): ≤ 2 min | time by which NaF had substantially dispersed into most of the anterior chamber ([1]; FIG. 11, HRA images): ≤ 20 min | release of NaF into the anterior chamber (HRA imaging) ([1]; device with polymeric delivery implant in sub-Tenon's space, inner port extending into anterior chamber): sustained-release of NaF into the anterior chamber

CCNC(=O)CCC/C=C\C[C@@H]1[C@@H](/C=C/[C@@H](O)CCc2ccccc2)[C@H](O)C[C@@H]1O [bimatoprost]
IOP (glaucoma): reduced | maintained vision in both eyes [2]: at least 20/32

CC(C)OC(=O)CCC/C=C\C[C@@H]1[C@@H](CC[C@@H](O)CCc2ccccc2)[C@H](O)C[C@@H]1O [latanoprost]
increase in brown pigment in the iris (iris): 5-15 % of human eyes

From patent US20120245505A1, “INTRACAMERAL DEVICES FOR SUSTAINED DELIVERY” (priority 2009, published 2012)
